Reference: patent publication US8394776B2, “Use of ursolic acid saponin,oleanolic acid saponin in preparation of increasing leucocytes and/or platelet medicine” (Chengdu Di'Ao Jiuhong Pharmaceutical Factor, priority 2007, dated 2013)
Marks after values point to notes of the source that are not given here.

Tests used:
leukocytes (WBC) = assay: Cyclophosphamide-induced leukopenia in mice: leukocytes (WBC); format: in vivo, Kunming mice; conditions: 0.8 mg/kg; for leukocytes (WBC), Day1 after modeling: CY 100 mg/kg x 3 days
Procedure: (§1) Further, in vivo experiments were carried out on the compounds involved in the present invention using animal models of cyclophosphamide-induced leukopenia in mice. Experimental methods are briefed as follows: Healthy Kunming mice, of which half were male and the other half were female, were divided into groups, each group incuding 18 mice, and those mice weighing 18-22 g were selected and divided into groups randomly according to their body weights. Each group was given a different drug, wherein the negative control group and model control group were given physiological saline of the same volume, and the positive control group was treated with granulocyte colony-stimulating factors 40 μg/kg through subcutaneous injection (injection volume: 0.1 ml/10 g). After administration for 3 days, except the negative control group, other treatment groups were treated with 100 mg/kg cyclophosphamide (CY) through lumbar injection once a day for three days to cause a decrease of leukocytes in mice. A drop of blood (20 μl) was taken from posterior orbital venous plexus to detect the hemogram to observe the situation of leukocytes and platelets on day 1, day 3 and/or day 5 after the final lumbar injection of cyclophosphamide (i.e day 1, day 3 and/or day 5 after modeling) (Note: Each treatment group was administrated incessantly). The mice were killed on day 5 after the final lumbar injection of cyclophosphamide (i.e day 5 after modeling), and the leukocytes (WBC) and platelets (PLT) of the hemogram index were counted.
This experiment mainly studies the effect of G-1, G-6 and G-8 of ursolic acid saponin in increasing leukocytes, and compares the therapeutic effects of aglycon of ursolic acid and oleanolic acid and of the compound G-22 which has been disclosed by a patent.
(§2) The purpose of this experiment is to study the effect of G-1, G-3, G-11 and G-12 of ursolic acid saponin and oleanolic acid saponin in increasing platelets, and to observe whether G-11 and G-12 of oleanolic acid saponin have an effect in increasing leukocytes.

leucocytes = conditions: administrated through abdominal cavity; 25, 50 and 100 mg/kg; effect obvious at high dose; cited from earlier work
[1] = system: bone marrow mononuclear cell (BMMNC); assay: Monocytic proliferation in bone marrow of mice cultured in vitro (SRB method); format: cell-based, KunMing mice; conditions: 1 μg/ml; cultured 5 days; versus blank control
Excerpt: 15-20 KunMing mice (purchased from Laboratory Animal Center of Zhengzhou University, Henan) of either sex were killed by cervical vertebral dislocation. Bilateral thighbones were isolated and caput femoris was cut off. The marrow was washed repeatedly with serum-free RPMI1640 (Gibco Corp.), the wash solution containing marrow cells was collected, sucked and blew repeatedly with a pipette to make the cells disperse. After standing for a moment, the supernatant was sucked up and centrifugated at 100 g for 3 min to collect the cell pellet. The cells were resuspended in a culture media and brought to a volume of 5 ml. The cell suspension was added to the upper layer of a centrifugal tube containing 5 ml of a lymphocyte separation medium of mice and centrifugated at 400 g for 30 min. The milk-white bone marrow mononuclear cell (BMMNC) layer in the middle of the interface was collected and washed with serum-free medium RPMI1640 for three times to obtain a BMMNC suspension, which was inoculated into a 96-well plate at forty thousand per well after counting. Positive drugs rhG-CSF (recombinant granulocyte colony-stimulating factor, manufactured by QI LU Pharmaceutical Co., LTD., Shandong) or test samples of different concentrations were added, and meanwhile a blank control group without drug was established. They were cultured in a 5% CO2 incubator at 37 for 5 days. Cell proliferation was measured by a conventional SRB (Sigma) method in which OD at 490 nm was measured after being dyed with SRB. The growth rates of cell proliferation after drug treatment were calculated (Growth rate of cell proliferation=experimental group-blank control group/blank control group*100%).

erythrocytes = assay: Comparison of hemolytic activities (HD50); format: cell-based, rabbit
Procedure: The test samples were dissolved in DMSO/physiological saline (1:4) as a solvent to generate the tested concentration gradients of 40, 80, 120, 160, 200 μg/ml. Blood (25 ml) was taken from a rabbit heart, poured into an erlenmeyer flask containing glass beads and shook gently for 10 min to remove fibrinogen so as to convert the blood into defidrinated blood. The resultant blood was transferred into a graduation centrifugal tube. About 10 times physiological saline was added, shook up and centrifuged at 2000 r/min for 5 minutes. The supernatant was removed, and the precipitated erythrocytes were washed with physiological saline again by the above method for 4 times until the supernatant was colorless and transparent. The resulant erythrocytes were prepared into a 10% suspension using physiological saline for testing. 250 μl of the 10% erythrocyte suspension was added into 2.5 ml of a tested sample, solvent (blank control) or distilled water (positive control), mixed thoroughly, and immediately placed in a thermotank maintained at 37° C. for incubation; and it was taken out 1 hour later and centrifuged at 3000 r/min for 5 minutes. The supernatant was taken for determining the OD value at 540 nm with a spectrophotometer. Hemolysis (Hemolysis Percentage)=(absorbance of sample−absorbance of blank control)×100%÷(absorbance of positive control-absorbance of blank control); and the data processing was performed by SPSS13.0 statistical software with drug concentration as an independent variable X and hemolysis as a dependent variable Y to obtain a linear regression equation; then, the drug concentration causing 50% hemolysis, i.e HD50, was calculated according to the equation. A P-value <0.05 was considered statistically significant.

platelets (PLT) = assay: Cyclophosphamide-induced leukopenia in mice: platelets (PLT); format: in vivo, Kunming mice; conditions: Experimental Example 3, 0.8 mg/kg
Procedure: as §1, §2

WBC = assay: 60Co-γ-induced leukopenia in mice: WBC; format: in vivo, Kunming mice
Excerpt: In order to illustrate the present invention in detail, with a model induced by ^60Co-γ rays, the effects of G-1 and G-22 on leukocytes of chemotherapy-induced-leukopenia mice were compared. The specific operation and the results are as follows.
Healthy Kunming mice, of which half were male and the other half were female, were divided into 6 groups randomly, with 17-18 in each group. Blood was taken from caudal vein to determine the normal hemogram (leucocyte, erythrocyte, platelet and hemoglobin), and adjustments were made according to body weights and hemogram results. The normal control group and model group were given isometric physiological saline once a day for 7 days, and then the post-radiation hemogram was determined. Except the normal control group, other groups were each subjected to a whole body exposure to ^60Co-γ rays at a total dose of 3.0 Gy to prepare the models of leukopenia in mice, followed by further administration for 14 days. The G-CSF group was adminitrated through subcutaneous injection for 5 days from the irradiation day on and the hemogram was determined by taking blood respectively on day 3, day 7 and day 14 after irradiation.

[2] = 0.80 mg/kg i.g., 3.0 Gy whole body

SMILES: CC1(C)CC[C@]2(C(=O)O)CC[C@]3(C)C(=CC[C@@H]4[C@@]5(C)CC[C@H](O)C(C)(C)[C@@H]5CC[C@]43C)[C@@H]2C1 [Sample G-20, oleanolic acid]
- effect in increasing leukocytes (in words) (leukocytes (WBC); Experimental Example 2): no obvious effect in increasing leukocytes
- leukocytes (WBC), Day 3 after modeling (leukocytes (WBC); Experimental Example 2): 3.88 ± 2.01
- leukocytes (WBC), Day 5 after modeling (leukocytes (WBC); Experimental Example 2): 7.00 ± 3.22
- leukocytes (WBC), Day1 after modeling (leukocytes (WBC); Experimental Example 2): 0.99 ± 0.40
- effect in increasing leucocytes (in words) (leucocytes): effective in increasing leucocytes
- Growth Rate of Proliferation %, 1 μg/ml [1]: 4.5%

SMILES: C[C@H]1[C@H](C)CC[C@]2(C(=O)O)CC[C@]3(C)C(=CC[C@@H]4[C@@]5(C)CC[C@H](O)C(C)(C)[C@@H]5CC[C@]43C)[C@H]12 [Sample G-21, ursolic acid]
- effect in increasing leukocytes (in words) (leukocytes (WBC); Experimental Example 2): no obvious effect in increasing leukocytes
- leukocytes (WBC), Day 3 after modeling (leukocytes (WBC); Experimental Example 2): 3.94 ± 1.73
- leukocytes (WBC), Day 5 after modeling (leukocytes (WBC); Experimental Example 2): 7.07 ± 3.14
- leukocytes (WBC), Day1 after modeling (leukocytes (WBC); Experimental Example 2): 1.01 ± 0.47
- effect in increasing leucocytes (in words) (leucocytes): effective in increasing leucocytes
- Growth Rate of Proliferation %, 1 μg/ml [1]: 7.9%

SMILES: C[C@H]1[C@H](C)CC[C@]2(C(=O)O[C@@H]3OC[C@H](O)[C@H](O)[C@H]3O)CC[C@]3(C)C(=CC[C@@H]4[C@@]5(C)CC[C@H](O[C@@H]6OC[C@H](O)[C@H](O)[C@H]6O)C(C)(C)[C@@H]5CC[C@]43C)[C@H]12 [Sample G-1, 3-O-(α-L-arabopyranosyl) ursolic acid-28-O-(α-L-arabopyranosyl) ester]
- leukocytes (WBC), Day 3 after modeling (leukocytes (WBC); Experimental Example 2): 7.85 ± 3.00**★★
- leukocytes (WBC), Day 5 after modeling (leukocytes (WBC); Experimental Example 2): 15.46 ± 10.44
- leukocytes (WBC), Day1 after modeling (leukocytes (WBC); Experimental Example 2): 1.14 ± 0.56Δ
- difference in increasing leukocytes compared with G-22 (in words) (leukocytes (WBC); Experimental Example 2, especially on day 3 after modeling): obvious difference in increasing leukocytes
- effect in increasing leukocytes (in words) (leukocytes (WBC); Experimental Example 3): obvious effect in increasing leukocytes and platelets
- leukocytes, Day 1 after modeling (leukocytes (WBC); Experimental Example 3): 0.98 ± 0.55
- leukocytes, Day 5 after modeling (leukocytes (WBC); Experimental Example 3): 9.33 ± 5.17
- difference in increasing leukocytes compared with G-22 (in words) (leukocytes (WBC); Experimental Example 3, day 5 after modeling): significant difference in increasing leukocytes and platelets
- HD50 (drug concentration causing 50% hemolysis) (erythrocytes; 10% rabbit erythrocyte suspension, 37° C., 1 hour, from linear regression over 40-200 μg/ml): 345 µg/mL
- tendency to cause hemolysis (in words) (erythrocytes; comparison among G-1, G-3, G-6, G-8): the most difficult to cause hemolysis
- effect in increasing platelets (in words) (platelets (PLT)): obvious effect in increasing leukocytes and platelets
- platelets, Day 1 after modelng (platelets (PLT)): 504.67 ± 117.81
- platelets, Day 5 after modeling (platelets (PLT)): 413.00 ± 218.95*★★
- difference in increasing platelets compared with G-22 (in words) (platelets (PLT); day 5 after modeling): significant difference in increasing leukocytes and platelets
- effect on leucocyte count of leukopenia mice (in words) (WBC; 0.80 mg/kg gastric perfusion, versus model group, day 7 and day 14 after irradiation): increased obviously
- WBC, 1 week after administration (WBC; 0.80 mg/kg i.g. once a day for 7 days, before irradiation): 9.21 ± 2.16 109/L
- WBC, Day 3 after irradiation (WBC; [2]): 2.06 ± 0.75 109/L
- WBC, Day 7 after irradiation (WBC; [2]): 4.59 ± 1.52** 109/L
- WBC, Day 14 after irradiation (WBC; [2]): 6.37 ± 1.54** 109/L
- WBC, Normal (WBC; normal hemogram before administration (baseline), 0.80 mg/kg i.g. group): 8.96 ± 1.58 109/L
- Growth Rate of Proliferation %, 1 μg/ml [1]: 31.3%
